Data: article PMC8401404 (Molecules, 2021)
Values after ≈ are worked out from the molar mass of the structure shown. Counter-ions that a name gives are not always drawn. Like-named read-outs stand apart in the source and are kept apart here.

Legend:
S. aureus ATCC 29213 = assay: Broth microdilution testing (CLSI); format: cell-based, Staphylococcus aureus
Procedure: (§1) Broth microdilution testing was performed according to CLSI (Clinical Laboratory Standards Institute) guidelines. MIC (minimal inhibitory concentration) value was defined as the last tested concentration of compound at which there is no visible growth of bacteria. […] Clinical and Laboratory Standards Institute (CLSI) guidelines.

S. cerevisiae ATCC 7752 = assay: Broth microdilution testing (CLSI); format: cell-based, Saccharomyces cerevisiae
Procedure: as §1

E. coli ATCC 25922 = assay: Broth microdilution testing (CLSI); format: cell-based, Escherichia coli
Procedure: as §1

[1] = MTS cytotoxicity assay, 2D cell culture, normal lung fibroblasts; settings: human
Procedure: (§2) MTS assay gives us information about the number of living cells, in this case, metabolically active cells, whereas the BrdU proliferation assay gives a measure of the cell population in active division phase. Both assays were performed in 2D and 3D assay formats. For the 2D cell assay format, we used classic two-dimensional in vitro assays and as a 3D assay we used a hanging drop proliferation cell assay as previously described. We explored the activity of compounds on three human lung cancer cell lines, A549, HCC827 and NCI-H358. The compound activity was also tested on human lung fibroblast cell line MRC-5. A two-dimensional in vitro viability assay was performed on the MRC-5 cell line to see if tested compounds are cytotoxic on normal cell lines in low concentrations. […] 7.1.
(§3) Test compounds were synthesized by a research group at the Department of Organic Chemistry, Faculty of Chemical Engineering and Technology, University of Zagreb. […] Compounds were diluted 1:3. We transferred 500 nL (for 2D cell culture) or 400 nL (for 3D cell culture) of the compound from a mother plate to test plate by using Mosquito (TTP labtech). DMSO percentage in test concentrations was 0.5–1.0%. Starting concentration of the test compounds and standard compound doxorubicin was 50 µM (2D cell culture) or 100 µM (3D cell culture).
(§4) Cells were grown in 96-well cell star polystyrene plates. We seeded 10,000 cells/well in wells 4 h prior to the treatment with different compounds concentrations and incubated for 72 h. A cell viability assay was performed according to the manufacturer’s instructions, using CellTiter 96 aqueous solution, MTS kit (Promega, Madison, WI, USA). After 0.5–2 h of cell incubation with MTS in 2D cell culture, the plates were read using PE EnVision absorbance at 490 nm.
(§5) Calculation of IC50 data, curves and QC analysis was performed by using Excel tools and GraphPadPrism software (La Jolla, CA, USA), v. […] QC criteria parameters (Z’, S:B, R2, HillSlope) were checked for every IC50 curve.

A549 [2] = assay: MTS cytotoxicity assay, 2D cell culture; settings: Homo sapiens, A549, 72 h, read-out: Cytotoxicity Assay IC50 ± SD, A549 2D
Procedure: as §2, §3, §4, §5

HCC827 [3] = assay: MTS cytotoxicity assay, 2D cell culture; settings: Homo sapiens, HCC827, 72 h, read-out: Cytotoxicity Assay IC50 ± SD; HCC827 2D
Procedure: as §2, §3, §4, §5

NCI-H358 [4] = assay: MTS cytotoxicity assay, 2D cell culture; settings: Homo sapiens, NCI-H358, 72 h, read-out: Cytotoxicity Assay IC50 ± SD; NCI-H358 2D
Procedure: as §2, §3, §4, §5

A549 [5] = assay: Cytotoxicity (viability) assay, 3D hanging drop cell culture; settings: Homo sapiens, A549, 72 h, read-out: Cytotoxicity Assay IC50 ± SD; A549 3D
Procedure: as §2, §3
(§6) Cells were grown in 96-well Perfecta 3D hanging drop plates 5000 cell/well for 4 days until spheres were formed (and checked under the microscope). After sphere formation cells were treated with compounds followed by 72 h incubation. Cell viability assay was performed according to the manufacturer’s instructions, using CellTiter GLO 3D for 3D cell culture (Promega); cell incubation was 5 min on the shaker followed by 25 min incubation in the dark. Plates were read using PE EnVision luminescence.
as §5

HCC827 [6] = assay: as above; settings: Homo sapiens, HCC827, 72 h, read-out: Cytotoxicity Assay IC50 ± SD; HCC827 3D
Procedure: as §2, §3, §6, §5

NCI-H358 [7] = assay: as above; settings: Homo sapiens, NCI-H358, 72 h, read-out: Cytotoxicity Assay IC50 ± SD; NCI-H358 3D
Procedure: as §2, §3, §6, §5

A549 [8] = assay: BrdU proliferation assay, 3D hanging drop cell culture; format: cell-based, human; settings: Homo sapiens
Procedure: as §2, §3, §6
(§7) Proliferation assay was performed using Cell Proliferation ELISA, BrdU (Sigma, St. Louis, MO, USA). Briefly, 48 h hours after compound addition, 10 µM of BrdU was added to each well and incubated for the following 24 h. After incubation, a single cell suspension was made for 3D cell culture in the new 96-well plate. Plates were centrifuged and supernatants were removed from each plate (for 2D and 3D cell culture) followed by 60 min incubation at 60 °C. The rest of the proliferation assay was performed according to the manufacturer’s instructions.
as §5

HCC827 [9] = assay: as above; format: cell-based, human; settings: Homo sapiens
Procedure: as §2, §3, §6, §7, §5

NCI-H358 [10] = assay: as above; format: cell-based, human; settings: Homo sapiens, NCI-H358, 3D, n = 2, read-out: Proliferation Assay IC50 ± SD
Procedure: as §2, §3, §6, §7, §5

A549 [11] = assay: BrdU proliferation assay, 2D cell culture; format: cell-based, human; settings: Homo sapiens
Procedure: as §2, §3, §4, §7, §5

HCC827 [12] = assay: BrdU proliferation assay, 2D cell culture; format: cell-based, human; settings: Homo sapiens
Procedure: as §2, §3, §4, §7, §5

NCI-H358 [13] = assay: BrdU proliferation assay, 2D cell culture; format: cell-based, human; settings: Homo sapiens, NCI-H358, 2D, n = 2, read-out: Proliferation Assay IC50 ± SD
Procedure: as §2, §3, §4, §7, §5

[14] = Staphylococcus aureus, ATCC29213, broth microdilution, 16–24h at 37 °C, read-out: MIC S. aureus ATCC 29213
[15] = Saccharomyces cerevisiae, ATCC7752, broth microdilution, 16–24h at 37 °C, read-out: MIC S. cerevisiae ATCC 7752
[16] = Escherichia coli, ATCC25922, broth microdilution, 16–24h at 37 °C, read-out: MIC E. coli ATCC 25922

Molecule: Gentamycin [reference compound]
- MIC (S. aureus ATCC 29213; broth microdilution, 16–24h at 37 °C, read-out: MIC S. aureus ATCC 29213): 0.25 µM
- MIC (S. cerevisiae ATCC 7752; broth microdilution, 16–24h at 37 °C, read-out: MIC S. cerevisiae ATCC 7752): >64 µM
- MIC (E. coli ATCC 25922; broth microdilution, 16–24h at 37 °C, read-out: MIC E. coli ATCC 25922): 0.5 µM

Molecule: N#C/C(=C\c1ccc(-c2ccc(Cl)cc2)o1)c1nc2ccccc2s1 [Compound 22, (E)-2-(Benzothiazol-2-yl)-3-[5-(4-chlorophenyl)furan-2-yl]acrylonitrile]
- IC50 at 72 h [1]: > 50 µM
- IC50 (A549 [2]): > 50 µM
- IC50 (HCC827 [3]): > 50 µM
- IC50 (NCI-H358 [4]): > 50 µM
- IC50 (A549 [5]): > 100 µM
- IC50 (HCC827 [6]): > 100 µM
- IC50 (NCI-H358 [7]): > 100 µM
- MIC (S. aureus ATCC 29213; Staphylococcus aureus, ATCC29213, read-out: MIC S. aureus ATCC 29213): > 100 µM
- MIC (S. cerevisiae ATCC 7752; Saccharomyces cerevisiae, ATCC7752, read-out: MIC S. cerevisiae ATCC 7752): > 100 µM
- IC50 (A549 [8]; A549, read-out: Proliferation Assay IC50 ± SD, A549 3D): > 100 µM
- IC50 (HCC827 [9]; HCC827, read-out: Proliferation Assay IC50 ± SD, HCC827 3D): > 100 µM
- IC50 (NCI-H358 [10]): > 100 µM
- IC50 (A549 [11]; A549, read-out: Proliferation Assay IC50 ± SD, A549 2D): > 50 µM
- IC50 (HCC827 [12]; HCC827, read-out: Proliferation Assay IC50 ± SD, HCC827 2D): > 50 µM
- IC50 (NCI-H358 [13]): > 50 µM
- MIC (E. coli ATCC 25922; Escherichia coli, ATCC25922, read-out: MIC E. coli ATCC 25922): > 100 µM

Molecule: O=[N+]([O-])c1ccc(-c2ccc(-c3nc4cc(C5=NCCN5)ccc4[nH]3)o2)cc1 (as salt: hydrochloride) [Compound 12, 5(6)-(4,5-Dihydro-1H-imidazol-2-yl)-2-[5-(4-nitrophenyl)furan-2-yl]benzimidazole hydrochloride]
- melting point: > 270 °C

Molecule: N#Cc1ccc2[nH]c(-c3ccc(-c4ccc([N+](=O)[O-])cc4)o3)nc2c1 [Compound 10, 5(6)-Cyano-2-[5-(4-nitrophenyl)furan-2-yl]benzimidazole]
- IC50 at 72 h ([1]; MRC-5 normal lung fibroblasts, 2D culture): > 50 µM
- IC50 (A549 [2]; 72 h, MTS, n = 2): > 50 µM
- IC50 (HCC827 [3]): > 50 µM
- IC50 (NCI-H358 [4]): > 50 µM
- melting point: 242 to 246 °C
- IC50 (A549 [5]): > 100 µM
- IC50 (HCC827 [6]): > 100 µM
- IC50 (NCI-H358 [7]): > 100 µM
- MIC (S. aureus ATCC 29213; [14]): > 100 µM
- MIC (S. cerevisiae ATCC 7752; [15]): > 100 µM
- IC50 (A549 [8]; A549, 3D, BrdU, n = 2, read-out: Proliferation Assay IC50 ± SD): > 100 µM
- IC50 (HCC827 [9]; HCC827, 3D, BrdU, n = 2, read-out: Proliferation Assay IC50 ± SD): > 100 µM
- IC50 (NCI-H358 [10]): > 100 µM
- IC50 (A549 [11]; A549, 2D, BrdU, n = 2, read-out: Proliferation Assay IC50 ± SD): > 50 µM
- IC50 (HCC827 [12]; HCC827, 2D, BrdU, n = 2, read-out: Proliferation Assay IC50 ± SD): > 50 µM
- IC50 (NCI-H358 [13]): > 50 µM
- MIC (E. coli ATCC 25922; [16]): > 100 µM

Molecule: CC(C)(O/N=C(\C(=O)N[C@@H]1C(=O)N2C(C(=O)[O-])=C(C[n+]3ccccc3)CS[C@H]12)c1csc(N)n1)C(=O)O [Ceftazidime, reference compound]
- MIC (S. aureus ATCC 29213; [14]): 16 µM (≈ 8.75 µg/mL)
- MIC (S. cerevisiae ATCC 7752; [15]): > 64 µM
- MIC (E. coli ATCC 25922; [16]): < 0.125 µM

Molecule: CC(C)NC(=N)c1ccc2[nH]c(-c3ccc(-c4ccc([N+](=O)[O-])cc4)o3)nc2c1 (as salt: hydrochloride) [Compound 11, 2-[5-(4-Nitrophenyl)furan-2-yl]-5(6)-N-isopropilamidinobenzimidazole hydrochloride]
- melting point: > 270 °C

Molecule: CC1(C)S[C@@H]2[C@H](NC(=O)[C@H](N)c3ccccc3)C(=O)N2[C@H]1C(=O)O [Ampicillin, reference compound]
- MIC (S. aureus ATCC 29213; [14]): 2 µM (≈ 0.699 µg/mL)
- MIC (S. cerevisiae ATCC 7752; [15]): > 64 µM
- MIC (E. coli ATCC 25922; [16]): 4 µM (≈ 1.4 µg/mL)
